Assay results from patent US20220288051A1, “METHODS FOR TREATING CANCER USING SERIAL ADMINISTRATION OF E3 UBIQUITIN LIGASE DEGRADERS” (Dana-Farber Cancer Institute, Inc., priority 2019, published 2022).

Legend:
CDK9 = test: Immunoblotting of degronimid-treated MM.1S cells: CDK9; type: cell-based, human; conditions: 0.01-1 μM, 4 h
Procedure: (§1) MM.1S cells were seeded in 6-well plates at 3×10^6 cells/well (˜24 h prior to addition of drug). […] Cell pellets were thawed on ice, lysed using RIPA buffer (ThermoFisher) with protease/phosphatase inhibitor cocktail (Cell Signal Technology, Danvers, Mass.) by incubating on ice 30 min. The lysates were clarified by spinning at 10,000 g for 10 min at 4° C. and the concentration of the lysate was determined using BCA protocol (ThermoFisher). Samples were prepared for Western blot using LDS sample buffer (NuPage, Invitrogen, Carlsbad, Calif., USA) with sample reducing agent (NuPage, Invitrogen) and heated to 95° C. for 5 min. Samples were loaded (20 ug/sample) into Tris-acetate or Bis-Tris gels (NuPage, Invitrogen) and run as per kit instructions using appropriate running buffers. Gels were transferred as described (Matthews et al., 2015) onto PVDF membrane using SDS-based transfer buffer (NuPage, Invitrogen). Membranes were blocked (5% skim milk; or 5% bovine serum albumin in TBS-T) for at least 30 min then probed with primary antibodies overnight (4° C.). […] Each protein of interest (BRD2, BRD3, BRD4, c-myc and CDK9) was assessed in a separate gel and corresponding membrane (which was simultaneously incubated with antibodies for both the target protein of interest and GAPDH, to provide a loading control within the same blot). […]

MM.1S cells [1] = test: Reverse phase protein array (RPPA) of treated MM.1S cells; type: cell-based, human
Procedure: MM.1S cells were seeded in 6-well plates (2×10^6/well) and cultured overnight prior to treatment. […] Lysates of these protein samples were processed by the Functional Proteomics RPPA Core Facility of the MD Anderson Cancer Center (Houston, Tex.), based on protocols and procedures outlined in the website of the facility (mdanderson.org/research/research-resources/core-facilities/functional-proteomicsrppa-core/rppa-process.html) and similarly to prior reports (Li et al., 2017). We mapped protein antibody labels to gene symbols available from Antibody Information and Protocols at MDACC (mdanderson.org/content/dam/mdanderson/documents/corefacilities/Functional%20Proteomics %20RPPA%20Core%20Facility/RPPA_Standard%20Ab%20List_Updated.xlsx). For data preprocessing, results from replicates of the same experimental run were averaged for each protein. The resulting matrix of RPPA data was further processed to generate log-transformed linear normalized data, linear normalized, and normalized median centered data. The differential protein expression analysis for dBET6- or JQ1-treated samples vs. controls were performed using the limma moderated t-statistic (Ritchie et al., 2015).

[2] = Tolerability of dBET6 treatment in mice; type: in vivo
Procedure: i. Subcutaneous MM xenograft model: Luciferase-positive MM.1S cells (10×106 Luc-GFP-MM.1S in matrigel) were transplanted into the right flank of NSG mice (100 μL). […] Treatments were carried out daily for 8 days and tumor size assessed daily using calipers. Mice were culled when tumors reached 2000 mm3 or when moribund.
ii. Xenograft model of diffuse MM lesions: Luciferase-positive MM.1S cells (1×106 Luc-GFP-MM.1S) were injected via the tail vein (IV) into NSG mice. […] BLI was undertaken weekly and mice were euthanized when moribund or upon signs of hind-limb paralysis.

MM.1S cells [3] = test: Assessment of apoptosis, Annexin V/PI flow cytometry; type: cell-based, human
Procedure: For the assessment of apoptosis, MM.1S cells were seeded into 6-well plates (2×10^6 cells/well) in medium supplemented with 10% FBS and penicillin/streptomycin (3.2 mL) 24 h prior to treatment. Cells were treated with dBET6, JQ1, or vehicle and harvested prior to staining with Annexin V-FITC and PI (BD, Bedford, Mass.). Apoptosis was assessed immediately using flow cytometry (LSR II, BD, Bedford, Mass.)

c-Myc = test: Immunoblotting of degronimid-treated MM.1S cells: c-Myc; type: cell-based, human; conditions: 0.01-1 μM, 4 h
Procedure: as §1

MM.1S cells [4] = test: RNA-sequencing of treated MM.1S cells; type: cell-based, human
patient-derived MM cells = test: Ex vivo treatment of patient-derived CD138+ tumor cells, CTG; type: cell-based, human; conditions: variable prior therapies
Procedure: Bone marrow aspirates (1-4 mL) from individuals with MM (newly diagnosed, smoldering, relapsed/refractory, maintenance treatment) or MGUS were collected after patients provided informed consent and based on tissue collection protocol approved by the Dana-Farber Cancer Institute Institutional Review Board. Samples were processed for separation of CD138+ plasma cells, using CD138-positive selection beads, and immunomagnetic separation, as per kit instructions (EasySep, StemCell, Cambridge, Mass.). Patient-derived tumor cells were cultured in RPMI 1640 medium supplemented with L-glutamine (Life Technologies, Carlsbad, Calif., USA), FBS (10%) (Gemini Bioproducts, Woodland, Calif.), 20 I.U./mL penicillin and 20 μg/mL streptomycin (Fisher Scientific, Springfield, N.J., USA) and hIL-6 (Thermo Fisher Scientific, Waltham, Mass., USA […]).
Samples were processed for separation of CD138+ plasma cells, using CD138-positive selection beads, and immunomagnetic separation, as per kit instructions (EasySep, StemCell, Cambridge, Mass.). […] Viability was assessed using CTG, as described (24 h, 48 h, 72 h) and each treatment was repeated up to 3 times (n=3 biological replicates).

[5] = tested on: MM cells cultured in the presence of bone-marrow stromal cells; test: CS-BLI viability in co-culture with bone marrow stromal cells; type: cell-based, human; conditions: co-culture vs MM cells alone
Procedure: Cell viability and growth of human MM cell lines were assessed using CellTitre-Glo (CTG) assay (Promega, Madison, Wis.) per kit instructions, or CS-BLI as described (Delmore et al., 2011). Briefly, cells were seeded (5×10^3 cells/well) into 96- or 384-well opaque plates, in supplemented media (40 or 50 uL) and incubated for 24 h prior to addition of drug. For co-culture experiments, HS27A cells were pre-seeded (5×10^3 cells/well) into each well in media prior (24 h) to the addition of MM cells. At each time point (24 h, 48 h, and/or 72 h) CTG reagent (10% volume) was added to each well, and plates were read using a microplate reader (BioTek Synergy 2, BioTek, Winooski, Va.).

[6] = dBET6 vs JQ1-treated MM.1S cells

Row | SMILES | CDK9 protein levels (CDK9) | protein changes at 4 hrs (MM.1S cells [1]; MM.1S, dBET6 0.1 μM, JQ1 0.5 μM, 4 hrs) | RPPA expression of pro-survival and pro-apoptotic proteins (MM.1S cells [1]; MM.1S, dBET6 0.1 μM, 4 h and 18 h) | protein changes at later time-points (MM.1S cells [1]; MM.1S, dBET6 0.1 μM, later time-points) | suppression of c-MYC at protein level (MM.1S cells [1]; [6]) | tolerability ([2]; doses and schedules reported) | efficacy or tolerability of alternative regimens ([2]; pilot experiments, lower or higher dose intensity (data not shown)) | exposure prior to drug washout sufficient to commit cells to cell death (MM.1S cells [3]; MM.1S cells, Annexin V/PI staining) | pro-apoptotic response (MM.1S cells [3]; human MM.1S cells, 0.01 μM or 0.05 μM) | c-Myc protein levels (c-Myc) | transcriptional profile (RNA-Seq), down-regulated transcripts (MM.1S cells [4]; dBET6 0.1 or 0.5 μM vs JQ1 0.5 μM, 4 h) | suppression of c-MYC at transcript level (MM.1S cells [4]; [6]) | response of patient-derived cells (patient-derived MM cells) | change in responsiveness in the presence of bone-marrow stromal cells [5]
1 | CC(C)(C)c1cnc(CSc2cnc(NC(=O)C3CCN(CC(=O)NCCOCCOCCOCCNc4cccc5c4C(=O)N(C4CCC(=O)NC4=O)C5=O)CC3)s2)o1 (centres unmarked) [Thal-SNS-032] | causes degradation of CDK9 |  |  |  |  |  |  |  |  |  |  |  |  | 
2 | Cc1sc2c(c1C)C(c1ccc(Cl)cc1)=N[C@@H](CC(=O)NCCCCCCCCNC(=O)COc1cccc3c1C(=O)N(C1CCC(=O)NC1=O)C3=O)c1nnc(C)n1-2 (some centres unmarked) [dBET6] |  | causes downregulation of Mcl-1, Cyclin B1 (not shown), and BRD4 | reduce the expression of key pro-survival proteins, such as MCL-1, c-MYC, and pS6, while leading to the upregulation of cell cycle inhibitor, p21, and cleavage of executioner caspases 3 and 7 | suppression of Ser240/Ser244 S6 phosphorylation; induction of p21, and increase in cleaved caspase3/7 | more pronounced suppression of c-MYC | Mice tolerated dBET6 treatment | less efficacy or tolerability, respectively | ≤ 4 h | dose- and time-dependent pro-apoptotic response | rapid and robust depletion | down-regulation of a larger group of transcripts | more pronounced suppression of c-MYC | dose-dependent response | No major changes in dBET6 responsiveness
